Assay results published in ChEMBL document CHEMBL1134260, “Adamantylaminopyrimidines and -pyridines are potent inducers of tumor necrosis factor-alpha” (2001).
Active and inactive are the calls of the source. The calls are words filed in the database; no cut-off is given here.

Assays:
[1] = TNF-alpha stimulatory activity in B78/TNF/9 melanoma cells evaluated by ELISA method; type: functional, Mus musculus; parameters: concentration or dose not given beside the values
Mus musculus [2] = organism: Mus musculus; assay: Tested for the ability to stimulate TNF-alpha production in B78-H1 murine melanoma cells transduced with gene for human TNF-alpha, clone-9 at 10 uM concentration; In active; type: functional
[3] = Tested for the ability to stimulate TNF-alpha production in B78-H1 murine melanoma cells transduced with gene for human TNF-alpha, clone-9 at 10 uM concentration; type: functional, Mus musculus
Mus musculus [4] = organism: Mus musculus; assay: Tested for the ability to stimulate TNF-alpha production in B78-H1 murine melanoma cells transduced with gene for human TNF-alpha, clone-9 at 10 nM concentration; In active; type: functional

Row | SMILES | TNF-alpha production (% of control) [1] [%] | further results
1 | Cc1cc(N)nc(NC23CC4CC(CC(C4)C2)C3)n1 | ~180 | –
2 | c1cncc(NC23CC4CC(CC(C4)C2)C3)c1 | ~190 | –
3 | c1cc(NC23CC4CC(CC(C4)C2)C3)ccn1 | ~130 | –
4 | Clc1ccc(NC23CC4CC(CC(C4)C2)C3)cn1 | ~100 | –
5 | c1ccc(NC23CC4CC(CC(C4)C2)C3)nc1 | ~170 | Enhancement (Mus musculus [2]): inactive
6 | Cc1cccc(NC23CC4CC(CC(C4)C2)C3)n1 | ~260 | Enhancement [3]: 10%
7 | c1cnc(NC23CC4CC(CC(C4)C2)C3)nc1 | ~200 | –
8 | Cc1ccnc(NC23CC4CC(CC(C4)C2)C3)c1 | ~200 | –
9 | Cc1cc(Cl)nc(NC23CC4CC(CC(C4)C2)C3)n1 | ~220 | –
10 | NC12CC3CC(CC(C3)C1)C2 | – | Enhancement (Mus musculus [2]): inactive
11 | Cc1cc(C)nc(NC23CC4CC(CC(C4)C2)C3)c1 | ~250 | Enhancement (Mus musculus [2]): inactive
12 | Cc1cc(C)nc(NC23CC4CC(CC(C4)C2)C3)n1 | ~240 | Enhancement (Mus musculus [4]): inactive
13 | Cc1ccc(NC23CC4CC(CC(C4)C2)C3)nc1 | ~200 | –
14 | Brc1cnc(NC23CC4CC(CC(C4)C2)C3)nc1 | ~150 | –
15 | Brc1ccc(NC23CC4CC(CC(C4)C2)C3)nc1 | ~140 | –
